Experimental findings from patent publication US4740233A, “Substituted 1,2,4-triazolo[1,5-a]-pyrimidine-2-sulfonamides and compositions and methods of controlling undesired vegetation and suppressing the nitrification of ammonium nitrogen in soil” (The Dow Chemical Company, priority 1986, dated 1988) are described below.

Common to all, as to experiment: Postemergent control of plant species
One test has as its system crabgrass. Format: in vivo, Digitaria spp. Conditions: Digitaria sanguinalis, post-emergence, 336 h, read-out: percent postemergent control. The gist of the method: (§1)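 Foliar spray, 2-4 leaf stage, greenhouse. Formulation: acetone solution (2x final conc.) mixed 1:1 with water + 0.1% surface active agent. ~2 wk hold, watered as needed. Readout = % growth reduction vs untreated same-species controls.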

In another test the test system is johnson grass. Format: in vivo, Sorghum halepense. As to conditions: Sorghum halepense, post-emergence, 336 h, read-out: percent postemergent control. The gist of the method: as §1
Another test concerns wild oats. Format: in vivo, Avena fatua. As to conditions: Avena fatua, post-emergence, 336 h, read-out: percent postemergent control. The gist of the method: as §1
In the next test the test system is wheat. Format: in vivo, Triticum aestivum. Conditions: Triticum aestivum, post-emergence, 336 h, read-out: percent postemergent control. The gist of the method: as §1
In the next test the test system is annual morning glory. Format: in vivo, Ipomoea spp. As to conditions: Ipomoea, post-emergence, 336 h, read-out: percent postemergent control. The gist of the method: as §1
Another test deals with cotton. Format: in vivo, Gossypium spp. Conditions: Gossypium hirsutum, post-emergence, 336 h, read-out: percent postemergent control. The gist of the method:
as §1

The test system of the next test is barnyardgrass. Format: in vivo, Echinochloa crusgalli. Conditions: Echinochloa crus-galli, post-emergence, 336 h, read-out: percent postemergent control. The gist of the method:
as §1

The test system of a further test is yellow nutsedge. Format: in vivo, Cyperus esculentus. As to conditions: Cyperus, post-emergence, 336 h, read-out: percent postemergent control. The gist of the method: as §1
Another test has as its system sorghum. Format: in vivo, Sorghum vulgare. As to conditions: Sorghum, post-emergence, 336 h, read-out: percent postemergent control. The gist of the method: as §1
Another test relates to sugar beet. Format: in vivo, Beta saccharifera. Conditions: Beta vulgaris, post-emergence, 336 h, read-out: percent postemergent control. The gist of the method:
as §1

For another test, the system named is cocklebur. Format: in vivo, Xanthium spp. Conditions: Xanthium strumarium, post-emergence, 336 h, read-out: percent postemergent control. Here is the method: In representative operations, each compound to be utilized in a series of tests is dissolved in acetone to one-half of the final volume (twice the final concentration) to be used and the acetone solution in each case is admixed with an equal volume of water containing 0.1 percent by weight of surface active material. The compositions, generally in the nature of an emulsion, were employed to spray separate respective plant species which had been grown to a 2-4 leaf stage in soil of good nutrient content in a greenhouse. The various beds were positioned side by side and exposed to substantially identical conditions of temperature and light. Each bed was maintained so as to prevent any interaction with test compounds in different seed beds. Other plants were left untreated to serve as controls. After treatment, the plants were maintained for about two weeks under greenhouse conditions conducive for good plant growth and watered as necessary. Control refers to the reduction in growth compared to the observed results of the same untreated species.

The subject of a further test is corn. Format: in vivo, Zea mays. Conditions: Zea mays, post-emergence, 336 h, read-out: percent postemergent control. The gist of the method:
as §1

The next test has as its system jimsonweed. Format: in vivo, Datura stramonium. As to conditions: Datura stramonium, post-emergence, 336 h, read-out: percent postemergent control. The gist of the method: as §1
The subject of a further test is rice. Format: in vivo, Oryza sativa. Conditions: Oryza sativa, post-emergence, 336 h, read-out: percent postemergent control. The gist of the method:
as §1

For another test, the system named is yellow foxtail. Format: in vivo, Setaria lutescens. As to conditions: Setaria, post-emergence, 336 h, read-out: percent postemergent control. The gist of the method:
as §1

For a further test, the system named is rape. Format: in vivo, Brassica napus. As to conditions: Brassica napus, post-emergence, 336 h, read-out: percent postemergent control. The gist of the method: as §1
Another test concerns soybean. Format: in vivo, Glycine max. Conditions: Glycine max, post-emergence, 336 h, read-out: percent postemergent control. The gist of the method: as §1
A further test concerns velvetleaf. Format: in vivo, Abutilon theophrasti. As to conditions: Abutilon theophrasti, post-emergence, 336 h, read-out: percent postemergent control. The gist of the method: as §1
For the next test, the system named is pigweed. Format: in vivo, Amaranthus spp. As to conditions: Amaranthus retroflexus, post-emergence, 336 h, read-out: percent postemergent control. The gist of the method: as §1

Take `Cc1cc(C)n2nc(S(=O)(=O)Nc3c(Cl)ccc4ccccc34)nc2n1` [Compound 243]: the pest or weed control at 500 ppm is 0% in the test on crabgrass; 80% in the test with johnson grass; 0% with wild oats; 80% in the test on annual morning glory; 70% in the test with barnyardgrass; 95% in the test with yellow nutsedge. Moreover, the pest or weed control at 500 ppm with cocklebur came out at 100%; in the test with jimsonweed, 95%; with yellow foxtail, 75%; in the test on velvetleaf, 90%; in the test with pigweed it was 80%. Also, the plant injury at 500 ppm was determined as 20% with wheat; 80% in the test with cotton; 75% in the test with sorghum; 95% in the test with sugar beet; 75% with corn; 45% with rice. For the same molecule, the values for the plant injury at 500 ppm in the test with rape and with soybean were 100% and 85%, respectively.
For `Cc1ccn2nc(S(=O)(=O)Nc3c(F)c(F)cc(F)c3F)nc2n1` [Compound 163], the pest or weed control at 500 ppm with crabgrass, in the test with johnson grass, in the test with wild oats, with annual morning glory, with barnyardgrass and in the test on yellow nutsedge was 0% throughout. Moreover, the pest or weed control at 500 ppm turned out to be 40% with cocklebur; 70% with jimsonweed; 50% in the test on yellow foxtail; 20% in the test with velvetleaf; 90% with pigweed. The plant injury at 500 ppm in the test on wheat, in the test on cotton, with sorghum, in the test with sugar beet, with corn and in the test with rice was 0% in each case. Besides, the plant injury at 500 ppm with rape is 70%; with soybean, 0%.
On to `COC(=O)c1ccc(Cl)c(NS(=O)(=O)c2nc3nc(C)cc(C)n3n2)c1Cl` [Compound 82], for which the pest or weed control at 500 ppm was determined as 0% in the test with crabgrass; 0% in the test with johnson grass; 0% in the test on wild oats; 85% with annual morning glory; 0% with barnyardgrass; 0% in the test with yellow nutsedge. The pest or weed control at 500 ppm amounted to 85% in the test with cocklebur; 90% in the test on jimsonweed; 0% in the test on yellow foxtail; 85% with velvetleaf; 100% with pigweed. Further, the plant injury at 500 ppm in the test with wheat came to 0%; with cotton it was 85%; with sorghum, 0%; with sugar beet, 95%; with corn, 0%; in the test with rice, 0%. Moreover, the plant injury at 500 ppm in the test with rape came to 100%; with soybean it was 85%.
Consider `Cc1cc(C)n2nc(S(=O)(=O)Nc3c(C)ccc(Cl)c3Cl)nc2n1` [Compound 74], for which the pest or weed control at 500 ppm with crabgrass amounted to 0%; with johnson grass, 50%; in the test on wild oats, 0%; in the test with annual morning glory, 80%; in the test on barnyardgrass, 70%; in the test with yellow nutsedge it was 95%. The pest or weed control at 500 ppm in the test on cocklebur was found to be 100%; with jimsonweed, 90%; in the test on yellow foxtail, 60%; in the test on velvetleaf, 100%; with pigweed it was 70%. Besides, the plant injury at 500 ppm was 0% in the test on wheat; 70% in the test on cotton; 80% in the test on sorghum; 100% with sugar beet; 0% in the test on corn; 0% with rice. The plant injury at 500 ppm worked out at 100% in the test on rape and 80% in the test on soybean.
Turning to `Cc1ccn2nc(S(=O)(=O)Nc3c(Cl)ccc4ccccc34)nc2n1` [Compound 244], the pest or weed control at 500 ppm was found to be 40% with crabgrass; 80% with johnson grass; 0% with wild oats; 90% in the test on annual morning glory; 40% with barnyardgrass; 90% with yellow nutsedge. For the same molecule, the pest or weed control at 500 ppm in the test on cocklebur was 100%; in the test with jimsonweed it was 100%; in the test with yellow foxtail it was 95%; with velvetleaf, 100%; in the test with pigweed it was 100%. For the same molecule, the plant injury at 500 ppm came out at 20% in the test on wheat; 100% in the test on cotton; 90% in the test on sorghum; 100% with sugar beet; 40% in the test on corn; 40% in the test on rice. Further, the plant injury at 500 ppm with rape worked out at 100%; in the test on soybean, 45%.
With `COC(=O)c1c(NS(=O)(=O)c2nc3nc(C)ccn3n2)c(C)nn1C` [Compound 248], the pest or weed control at 500 ppm in the test on crabgrass, with johnson grass, in the test on wild oats, in the test on annual morning glory, in the test with barnyardgrass and in the test on yellow nutsedge was 0% in each case. Also, the pest or weed control at 500 ppm with cocklebur was 0%; in the test with jimsonweed, 0%; in the test with yellow foxtail, 0%; with velvetleaf, 100%; in the test on pigweed, 0%. The plant injury at 500 ppm with wheat turned out to be 0%; with cotton, 50%; in the test on sorghum, 80%; in the test on sugar beet, 75%; in the test on corn, 0%; in the test on rice, 50%. Besides, the figures for the plant injury at 500 ppm in the test on rape and in the test on soybean were 100% and 40%, respectively.
